Laboratory results reported in patent US4210636A, “Antisecretory polypeptides” (American Home Products Corporation, priority 1978, dated 1980).
Bridge positions count the residues as written; N and C are the ends. Square brackets hold non-standard residues; d marks the D form. Peptide text beside a SMILES is read from it. Mpa = O=C(O)CCS

How the values were obtained:
glucagon secretion = test: In vivo glucagon secretion test
Description: (§1) The potency of each compound is reported at the end of each example illustrating its production. […] In addition, the maximum dose employed to evaluate control of growth hormone, insulin and glucagon secretion is reported.

insulin secretion = test: In vivo insulin secretion test
Description: as §1

growth hormone secretion = test: In vivo growth hormone secretion test
Description: as §1

[1] = test system: gastric secretion (total gastric volume, hydrogen ion secretion, hydrogen ion concentration); test: Anti-secretory activity in pylorus-ligated (Shay) rat, s.c.; format: in vivo; conditions: for hydrogen ion secretion / total gastric volume: at the reported potency dose (IV 26.3 mg/kg; V and VI 4.40 mg/kg); for Antisecretory potency: lowest dose administered at which two of the three parameters (total gastric volume, hydrogen ion secretion, hydrogen ion concentration) were significantly decreased: pylorus-ligated male Charles River rats, 4 hours after ligation
Procedure: Each of the polypeptides of this invention was tested and found active parenterally (s.c.) in the scientifically recognized, standard test for anti-secretory activity which involves the following procedure in which male Charles River rats weighing 190-260 grams are deprived of food but not water for eighteen hours prior to use. Water is withheld during the actual experiment. The rats are weighed, anesthetized with ether and the pylorus is ligated according to the method of Shay et al., Gastroenterology, 26, 906-913 (1954). Treatment or vehicle control is then administered subcutaneously (s.c.). The rats are housed two per cage and sacrificed with CO2 four hours after ligation. The stomachs are removed, rinsed, and contents emptied into a graduated centrifuge tube. The tubes are centrifuged for twenty minutes at two thousand revolutions per minute and the volume of gastric juice is recorded. Any sample which is obviously contaminated with feces, food or blood is eliminated. An aliquot of each sample is frozen for later analysis of pepsin. The pH is measured and one milliliter of gastric juice is titrated with 0.1 N NaOH to a pH of 7.0-7.4. The data are analyzed by analysis of variance and, using the pooled error variance, t-comparisons are made between the groups.
as §1

gastric acid secretion = conditions: dose as high as 2 μm/Kg, s.c.; cited from earlier work

Compound	Glucagon secretion not inhibited at highest dose tested (glucagon secretion) [mg/kg]	Insulin secretion not inhibited at highest dose tested (insulin secretion) [mg/kg]	Growth hormone secretion not inhibited at highest dose tested (growth hormone secretion) [mg/kg]	hydrogen ion secretion ([1]; pylorus-ligated rat)	total gastric volume ([1]; pylorus-ligated rat)	Antisecretory potency: lowest dose administered at which two of the three parameters (total gastric volume, hydrogen ion secretion, hydrogen ion concentration) were significantly decreased [1] [mg/kg]	Dose that effectively inhibits secretion of glucagon (glucagon secretion; reference)	Dose that effectively inhibits secretion of insulin (insulin secretion; reference)	Dose that effectively inhibits secretion of growth hormone (growth hormone secretion; reference)	pH (gastric juice) ([1]; at 4.40 mg/kg, pylorus-ligated rat)	effect on gastric acid secretion (gastric acid secretion)
C[C@@H]1NC(=O)[C@H](CCCCN)NC(=O)[C@@H](N)CSSC[C@@H](C(=O)O)NC(=O)[C@H](CO)NC(=O)[C@H]([C@@H](C)O)NC(=O)[C@H](Cc2ccccc2)NC(=O)[C@H]([C@@H](C)O)NC(=O)[C@H](CCCCN)NC(=O)[C@H](Cc2c[nH]c3ccccc23)NC(=O)[C@H](Cc2ccccc2)NC(=O)[C@H](CO)NC1=O [IV, L-Cysteinyl-L-lysyl-L alanyl-L-seryl-L-phenylalanyl-L-tryptophyl-L-lysyl-L-threonyl-L-phenylalanyl-L-threonyl-L-seryl-L-cysteine cyclic (1→12) disulfide] (H-CKASFWKTFTSC-OH; disulfide 1-12)	> 3.10	> 3.10	> 3.10	significantly reduced	significantly reduced	26.3	–	–	–	–	–
C[C@H](N)C(=O)NCC(=O)N[C@H]1CSSC[C@@H](C(=O)O)NC(=O)[C@H](CO)NC(=O)[C@H]([C@@H](C)O)NC(=O)[C@H](Cc2ccccc2)NC(=O)[C@H]([C@@H](C)O)NC(=O)[C@H](CCCCN)NC(=O)[C@H](Cc2c[nH]c3ccccc23)NC(=O)[C@H](Cc2ccccc2)NC(=O)[C@H](Cc2ccccc2)NC(=O)[C@H](CC(N)=O)NC(=O)[C@H](CCCCN)NC1=O [Somatostatin, reference compound]	–	–	–	–	–	–	about 10 micrograms per kilogram	about 10 micrograms per kilogram	about 10 micrograms per kilogram	–	–
C[C@@H](O)[C@@H]1NC(=O)[C@H](Cc2ccccc2)NC(=O)[C@H]([C@@H](C)O)NC(=O)[C@H](CCCCN)NC(=O)[C@H](Cc2c[nH]c3ccccc23)NC(=O)[C@H](Cc2ccccc2)NC(=O)[C@H](Cc2ccccc2)NC(=O)[C@H](CC(N)=O)NC(=O)CCSSC[C@@H](C(=O)O)NC(=O)[C@H](CO)NC1=O [V, β-Mercaptopropionyl-L-asparaginyl-L-phenylalanyl-L-phenylalanyl-L-tryptophyl-L-lysyl-L-threonyl-L-phenylalanyl-L-threonyl-L-seryl-L-cysteine cyclic (1→11) disulfide] ([Mpa]NFFWKTFTSC-OH; disulfide 1-11)	> 1.90	> 1.90	> 1.90	significantly reduced	significantly reduced	4.40	–	–	–	–	–
CSCC[C@@H]1NC(=O)[C@H](Cc2ccccc2)NC(=O)[C@H](CC(N)=O)NC(=O)[C@H](CCCCN)NC(=O)[C@@H](NC(=O)CNC(=O)[C@H](C)N)CSSC[C@@H](C(=O)O)NC(=O)[C@H](CO)NC(=O)[C@H]([C@@H](C)O)NC(=O)[C@H](Cc2ccccc2)NC(=O)[C@H]([C@@H](C)O)NC(=O)[C@H](CCCCN)NC(=O)[C@H](Cc2c[nH]c3ccccc23)NC1=O [VI, L-Alanyl-glycyl-L-cysteinyl-L-lysyl-L-asparaginyl-L-phenylalanyl-L-methionyl-L-tryptophyl-L-lysyl-L-threonyl-L-phenylalanyl-L-threonyl-L-seryl-L-cystein cyclic (3→14) disulfide] (H-AGCKNFMWKTFTSC-OH; disulfide 3-14)	> 1.0	> 1.0	> 1.0	significantly reduced	significantly reduced	4.40	–	–	–	significantly reduced	–
D-Lys^9 -SRIF	–	–	–	–	–	–	–	–	–	–	no appreciable effect
